In patent US4102884A, “14 β-Hydroxy 3-deoxycardenolides” (priority 1975, dated 1978):
“Also recorded” adds a separate entry of the source. Read-outs that look alike come from different tables or passages of the source.

Tests used:
[1] = tested on: spontaneously beating atrial preparations; experiment: Inotropic effect (increase in contractility) in spontaneously beating atrial preparations; parameters: species or system guinea pigs; conditions: for EC (50% increase in contractility) / EC (30% increase in contractility) / EC (80% increase in contractility): Cavia porcellus; for EC (50% increase in contractility): read-out: Molar concentration causing 50% increase in contractility; for inotropic effect, comparison in words: compared with digoxin and/or 3-deoxycannogenol; for arrhythmogenicity relative to digoxin, in words: inotropic tests; for EC (30% increase in contractility): read-out: Molar concentration causing 30% increase in contractility; for EC (80% increase in contractility): read-out: Molar concentration causing 80% increase in contractility
Method: (§1) The inotropic effects have been determined with spontaneously beating atrial preparations derived from guinea pigs. The ATP-ase was obtained from the brain of the same animal and the methods of Okita et al (1973) and of Kupchan et al (1964) were employed. The lethal dose in cats was determined by the method of Chen.

[2] = tested on: ATP-ase; experiment: ATP-ase inhibition, methods of Okita et al (1973) and Kupchan et al (1964); assay type: biochemical, guinea pigs (brain); parameters: ATP-ase inhibition, % reversibility of inhibition: concentration or dose not given beside the values; conditions: for ATP-ase inhibition, comparison in words: compared with 3-deoxycannogenol and digoxin, or acetyl-strophanthidin; for ATP-ase inhibition, % reversibility of inhibition / ATP-ase inhibition, % inhibition at a 1×10^-4 molar concentration: Table 2
Method: as §1

[3] = tested on: heart; conditions: literature; cited from earlier work
[4] = tested on: heart muscle; parameters: species or system guinea pigs; conditions: decreasing order of number of washings; inotropic tests
Method: as §1

[5] = Lipophilicity (statement in words); assay type: physicochemical
[6] = tested on: cats; experiment: Emetic effects in cats, intravenous; assay type: in vivo; conditions: intravenous doses amounting to 1/10 and 1/100 of the lethal dose
[7] = tested on: cats; experiment: Lethal dose in cats, method of Chen; assay type: in vivo; conditions: compared with digoxin
Method: as §1

[8] = cited from earlier work
[9] = Table I / Example 45, guinea pig atria
[10] = Table 2, preliminary biological tests, 30%

For C[C@]12CCCC[C@H]1CC[C@@H]1[C@@H]2C[C@@H](O)[C@]2(C)[C@@H](C3=CC(=O)OC3)CC[C@]12O [3-deoxydigoxigenin], the EC (50% increase in contractility) [1, 9] was 7.6 µM, the “inotropic effect, comparison in words” value [1] was “comparable biological and inotropic effects” and the “arrhythmogenicity relative to digoxin, in words” value [1] was “much less arrhythomogenic relative to the anitropic activity than digoxin”. The “ATP-ase inhibition, comparison in words” value [2] was “comparable biological and inotropic effects and the ATP-ase inhibition as the 19-deoxygenated steroid acetyl-strophanthidin” and the IC50 ([2]; guinea pig brain ATP-ase, read-out: Molar concentration causing 50% ATP-ase inhibition) was 68 µM.
For CC(=O)O[C@@H]1C[C@]2(O)[C@H](CC[C@]3(C)[C@@H](c4ccc(=O)oc4)CC[C@@]32O)[C@@]2(C)CC[C@H](O)C=C12 [scillirosidin], the “cardiac activity, in words” value [3] is given as “high cardiac activity”.
For C[C@]12CC[C@@H]3[C@H]4CCCC[C@H]4CC[C@H]3[C@@]1(O)CC[C@@H]2C1=CC(=O)OC1 [19-nor analog, 14-hydroxy-19-nor-5β,14β-card-20(22)-enolide], the “heart-activity, in words” value [1] was “substantial heart-activities”.
For C[C@]12CC[C@H]3[C@@H](CC[C@@H]4CCCC[C@@]43CO)[C@@]1(O)CC[C@@H]2C1COC(=O)C1 (stereo partly drawn) [drawing 21], the EC (30% increase in contractility) [1, 10] was 18.5 µM, the EC (50% increase in contractility) ([1]; Table 2, preliminary biological tests) was 40 µM and the “ATP-ase inhibition, % reversibility of inhibition” value [2] was 57%. For the same compound, the “ATP-ase inhibition, % inhibition at a 1×10^-4 molar concentration” value (“ATP-ase inhibition, % inhibition” below) [2] was 45%.
With C[C@]12CC[C@H]3[C@@H](CC[C@@H]4C=CCC[C@@]43CO)[C@@]1(O)CC[C@@H]2C1=CC(=O)OC1 [14,19-dihydroxy-5β,14β-carda-3,20(22)-dienolide] the “number of washings to remove the compound from the bath / ease of removal” value (from here on “number … from the bath / ease of removal”) [4] was “digitoxin > digoxin > 3-deoxycannogenol > 14,19-dihydroxy-5β,14β-carda-3,20(22)-dienolide > strophanthidin 3-acetate”, the EC (50% increase in contractility) [1, 9] was 2.8 µM and the EC (30% increase in contractility) ([1]; Table I, guinea pig atria, 30%) was 2.2 µM. For the same compound, the EC (80% increase in contractility) ([1]; Table I, guinea pig atria) was 4 µM, the “inotropic effect, comparison in words” value [1] was “generally between those of 3-deoxycannogenol and digoxin” and the “inotropic effect, comparison in words” value ([1]; listed as 3(4)-anhydrocannogenol) was “greater inotropic activity than digoxin, though it is less active than 3-deoxycannogenol”. The “arrhythmogenicity relative to digoxin, in words” value [1] was “considerably less arrhythomogenic than digoxin”, the “toxicity relative to digoxin, in words” value ([2]; basis not stated, only ATP-ase inhibition tabulated) was “appears to be less toxic than digoxin” and the “ATP-ase inhibition, comparison in words” value [2] was “generally between those of 3-deoxycannogenol and digoxin”.
For C[C@H]1O[C@@H](O[C@H]2[C@@H](O)C[C@H](O[C@H]3[C@@H](O)C[C@H](O[C@H]4CC[C@@]5(C)[C@H](CC[C@@H]6[C@@H]5CC[C@]5(C)[C@@H](C7=CC(=O)OC7)CC[C@]65O)C4)O[C@@H]3C)O[C@@H]2C)C[C@H](O)[C@@H]1O [digitoxin, reference compound], the “number … from the bath / ease of removal” value [4] was “digitoxin > digoxin > 3-deoxycannogenol > 14,19-dihydroxy-5β,14β-carda-3,20(22)-dienolide > strophanthidin 3-acetate”.
For C[C@]12CC[C@H]3[C@@H](CC[C@@H]4CCCC[C@@]43COC=O)[C@@]1(O)CC[C@@H]2C1=CC(=O)OC1 [19-formate of 3-deoxycannogenol, 19-formyloxy-14-hydroxy-5β,14β-card-20(22)-enolide], the “inotropic effect, comparison in words” value [1] was “substantial inotropic activity which equals about that of digoxin”, the “inotropic effect, comparison in words” value ([1]; listed as 19-formate ester of 3-deoxycannogenol) was “less active than 3-deoxycannogenol” and the “lipophilicity, in words” value [5] was “more lipophilic”.
In the case of C[C@]12CC[C@H]3[C@@H](CC[C@@H]4CCCC[C@@]43CO)[C@@]1(O)CC[C@@H]2C1COC(=O)C1 (stereo partly drawn) [20(22)-dihydro analog, 3-deoxy-20.xi.,22-dihydrocannogenol], the “heart-activity, in words” value [1] is reported as “substantial heart-activities”.
In the case of C[C@]12CC[C@@H]3[C@H]4CCCC[C@H]4CC[C@H]3[C@@]1(O)CC[C@@H]2C1=CC(=O)OC1 [drawing 23], the “ATP-ase inhibition, % reversibility of inhibition” value [2] is reported as 76% and the “ATP-ase inhibition, % inhibition” value [2] is reported as 59%.
In the case of C[C@]12CC[C@H]3[C@@H](CC[C@H]4CCCC[C@@]43COC=O)[C@@]1(O)CC[C@@H]2C1=CC(=O)OC1, the EC (30% increase in contractility) [1, 10] is reported as 50 µM, the “ATP-ase inhibition, % reversibility of inhibition” value [2] is reported as 95% and the “ATP-ase inhibition, % inhibition” value [2] is reported as 42%.
With C[C@]12CC[C@H]3[C@@H](CC[C@@H]4CCCC[C@@]43CO)[C@@]1(O)CC[C@@H]2C1=CC(=O)OC1 [3-deoxycannogenol, 19-hydroxy-3-deoxydigitoxigenin] the “number … from the bath / ease of removal” value [4] was “more readily removed from the bath, containing the heart muscle, by repeated washing, than digoxin and less readily than the more polar strophanthidin 3-acetate; also recorded: digitoxin > digoxin > 3-deoxycannogenol > 14,19-dihydroxy-5β,14β-carda-3,20(22)-dienolide > strophanthidin 3-acetate”, the “dissociation of inotropic activity from ATP-ase inhibition and lethality, in words” value [1] was “strong dissociation of inotropic activity from ATP-ase inhibition and lethality” and the EC (50% increase in contractility) [1, 9] was 1.1 µM. The EC (30% increase in contractility) ([1]; Table I, guinea pig atria, 30%) was 0.72 µM, the EC (80% increase in contractility) ([1]; Table I, guinea pig atria) was 1.95 µM and the “arrhythmia, in words” value ([1]; at doses causing an increase of 90% of contractile force) was “no arrhythmia were observed”. The “inotropic effect, comparison in words” value [1] was “considerably more strongly than digoxin; also recorded: strong inotropic effect”, the “arrhythmogenicity relative to digoxin, in words” value [1] was “considerably less arrhythomogenic than digoxin” and the “times more inotropic than digoxin” value ([1]; molar basis, relative to digoxin) was 2-4 times. For the same compound, the “lipophilicity, in words” value [5] was “considerably more lipohilic than the 19-oxygenated cardenolides obtained from natural sources”, the emetic effects [6] was “no emetic effects” and the “toxicity relative to digoxin (lethal dose), in words” value ([7]; cats) was “substantially lower than that of digoxin; also recorded: less than half as toxic as digoxin”. For the same compound, the “therapeutic index, in words” value [7] was “better therapeutic index”.
In the case of C[C@@H]1O[C@@H](OC2CC[C@@]3(CO)[C@@H](CC[C@@H]4[C@@H]3[C@@H](O)C[C@]3(C)[C@@H](C5=CC(=O)OC5)CC[C@]43O)C2)[C@H](O)[C@H](O)[C@H]1O (stereo partly drawn) [panoside], the “cardiac activity, in words” value [3] is given as “high cardiac activity; also recorded: highly potent”.
In the case of C[C@@H]1O[C@@H](O[C@H]2C[C@@H](O)[C@]3(CO)[C@H]4[C@H](O)C[C@]5(C)[C@@H](C6=CC(=O)OC6)CC[C@]5(O)[C@@H]4CC[C@]3(O)C2)[C@H](O)[C@H](O)[C@H]1O [ouabain], the “intravenous activity, onset and duration, in words” value [8] is listed as “high intravenous activity, fast onset and short duration of activity” and the “oral activity, in words” value [8] is listed as “rather low oral activity”.
With C[C@]12CC[C@H]3[C@@H](CC[C@H]4C=CCC[C@@]43CO)[C@@]1(O)CC[C@@H]2C1=CC(=O)OC1 the “Molar concentration causing 30% increase in contractility” value [1, 10] was “inactive”, the “ATP-ase inhibition, % reversibility of inhibition” value [2] was 81% and the “ATP-ase inhibition, % inhibition” value [2] was 63%.
For C[C@]12CCCC[C@H]1CC[C@@H]1[C@@H]2CC[C@]2(C)[C@@H](C3=CC(=O)OC3)CC[C@]12O [3-deoxydigitoxigenin, 14-hydroxy-5β,14β-card-20(22)-enolide], the “cardiac activity, in words” value [3] is given as “significantly less active than digitoxigenin”.
With C[C@]12CC[C@H]3[C@@H](CC[C@@H]4C=CCC[C@@]43COC=O)[C@@]1(O)CC[C@@H]2C1=CC(=O)OC1 the “ATP-ase inhibition, % reversibility of inhibition” value [2] was 84% and the “ATP-ase inhibition, % inhibition” value [2] was 41%.
For CC(=O)O[C@H]1CC[C@]2(C=O)[C@H]3CC[C@]4(C)[C@@H](C5=CC(=O)OC5)CC[C@]4(O)[C@@H]3CC[C@]2(O)C1 [strophanthidin 3-acetate], the “number … from the bath / ease of removal” value [4] is listed as “digitoxin > digoxin > 3-deoxycannogenol > 14,19-dihydroxy-5β,14β-carda-3,20(22)-dienolide > strophanthidin 3-acetate”, the “intravenous activity, onset and duration, in words” value [8] is listed as “high intravenous activity, fast onset and short duration of activity” and the “oral activity, in words” value [8] is listed as “rather low oral activity”.
In the case of CO[C@H]1C[C@H](O[C@H]2CC[C@]3(C)[C@H]4CC[C@]5(C)[C@@H](C6=CC(=O)OC6)CC[C@]5(O)[C@@H]4CC[C@]3(O)C2)O[C@H](C)[C@H]1O [cymaroside of 5β-hydroxydigitoxigenin], the “cardiac activity, in words” value [3] is listed as “nearly twice as active as the cymaroside of digitoxigenin”.
With C[C@]12CC[C@H]3[C@@H](CC[C@@H]4CCCC[C@@]43COC=O)[C@@]1(O)CC[C@@H]2C1=CC(=O)OC1 [drawing 19] the EC (30% increase in contractility) [1, 10] was 2.9 µM.
